Earlier results as cited in US10024846B2, “Methods for treating diet-induced obesity by decreasing or inhibiting P2Y2 purinergic receptor expression or activity” (The United States of America as represented by the …, priority 2012, dated 2018).

Tests used:
human P2Y4 receptor = human P2Y4 receptor (Homo sapiens, UniProt P51582); conditions: Herold et al. 2004
rat P2Y4 receptor = rat P2Y4 receptor (Rattus norvegicus, UniProt O35811); conditions: Herold et al. 2004
P2Y2 receptor = conditions: competitive P2Y2 receptor antagonists; values from cited literature

Sequence of rat P2Y4 receptor (O35811 whole entry): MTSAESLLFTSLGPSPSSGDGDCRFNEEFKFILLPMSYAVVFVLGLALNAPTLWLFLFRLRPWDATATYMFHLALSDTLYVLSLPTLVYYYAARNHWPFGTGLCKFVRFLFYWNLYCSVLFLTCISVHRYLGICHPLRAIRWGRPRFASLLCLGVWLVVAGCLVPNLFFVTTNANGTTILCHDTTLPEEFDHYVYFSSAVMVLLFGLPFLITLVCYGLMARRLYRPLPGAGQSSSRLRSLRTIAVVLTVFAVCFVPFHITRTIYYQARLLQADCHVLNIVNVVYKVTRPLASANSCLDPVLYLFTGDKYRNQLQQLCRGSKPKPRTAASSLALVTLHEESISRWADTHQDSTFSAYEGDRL
Sequence of human P2Y4 receptor (P51582 whole entry): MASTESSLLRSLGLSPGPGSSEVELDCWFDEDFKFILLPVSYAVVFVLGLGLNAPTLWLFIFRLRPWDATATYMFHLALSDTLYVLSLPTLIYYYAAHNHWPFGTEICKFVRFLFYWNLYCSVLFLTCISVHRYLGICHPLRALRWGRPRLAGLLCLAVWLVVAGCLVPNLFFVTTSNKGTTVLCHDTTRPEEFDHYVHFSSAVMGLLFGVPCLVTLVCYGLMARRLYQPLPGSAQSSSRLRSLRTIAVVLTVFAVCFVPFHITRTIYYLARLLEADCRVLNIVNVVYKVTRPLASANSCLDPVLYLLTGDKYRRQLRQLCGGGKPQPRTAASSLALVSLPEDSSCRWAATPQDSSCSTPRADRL

IC50 (P2Y2 receptor) [µM] | Structure (SMILES) | agonist versus antagonist action at the P2Y4 receptor (human P2Y4 receptor) | agonist versus antagonist action at the P2Y4 receptor (rat P2Y4 receptor)
 | Nc1ncnc2c1ncn2[C@@H]1O[C@H](COP(=O)(O)OP(=O)(O)OP(=O)(O)O)[C@@H](O)[C@H]1O [ATP] | potent competitive antagonist | potent full agonist
~6 | Cc1ccc2c(c1)C=Cc1cc(C)ccc1C2c1cn(Cc2ccc(C(=O)Nc3nnn[nH]3)o2)c(=O)[nH]c1=S [AR-C118925] |  | 
~6 | Cn1cc(C2c3ccc(Cl)cc3C=Cc3scnc32)c(=S)[nH]c1=O (stereo not shown) [AR-C126313] |  | 
